The text below walks through data of patent publication US8680094B2, “1, 4-benzoxazine compounds and derivatives thereof as therapeutic drugs for the treatment of neurodegenerative conditions” (Board of Regents, The University of Texas System, priority 2008, dated 2014).

Holding throughout (format): cell-based, rat
In one assay the test system is phospho-MEK. The assay can be described thus: Western blot of signaling proteins in LK-treated cerebellar granule neurons: phospho-MEK. The settings on record: LK medium with compound, 3 h. As for the experimental part:
(§1) Cultures of cerebellar granule neurons were switched to HK medium, LK medium, or LK medium containing of HSB-13, HSB-22, or ASK-2a for 3 h. Total cell lysates were prepared and analyzed by Western blotting using antibodies against phospho-Akt (Ser473), phospho-MEK, phospho-ERK, and phospho-GSK3β.
(§2) The culture medium was removed and the cells were washed twice with ice-cold phosphate-buffered saline (PBS) and lysed in lysis buffer [1% Triton, 20 mM Tris-HCl (pH 7.5), 150 mM NaCl, 1 mM Na2EDTA, 1 mM EGTA, 2.5 mM sodium pyrophosphate, 1 mM beta-glycerophosphate, 1 mM Na3VO4, 1 μg/mL leupeptin and 1 protease inhibitor mixture]. Protein concentrations were measured and normalized using Bradford protein assay reagent (Bio-Rad, Hercules, Calif., USA). Following normalization, 40 μg of protein was subjected to Western blotting. Immunoreactivity was examined by enhanced chemiluminescence (Amersham Bioscience, Piscataway, N.J., USA).
(§3) Activation of MEK, ERK and Akt requires their phosphorylation, which can be detected using phospho-specific antibodies. As previously reported by the inventors and others (Chin et al., 2004; Johnson et al., 2005; Majdzadeh et al., 2008), MEK and ERK phosphorylation decreases following LK treatment of cerebellar granule neurons. This decrease is not prevented by HSB-13, HSB-22, or ASK-2a (FIG. 4). […] This is also not affected by treatment with ASK-2a or HSB-22 (FIG. 4).

The next assay concerns phospho-GSK3β. Kind of assay: Western blot of signaling proteins in LK-treated cerebellar granule neurons: phospho-GSK3β. The settings on record: LK medium with compound, 3 h. As for the experimental part: as §1, §2
Since the Raf-MEK-ERK and the PI-3 Kinase-Akt pathways are not required for neuroprotection by HSB-13, the involvement of other signaling molecules that are known to promote neuronal survival was determined. GSK3β is a proapoptotic molecule that is activated during apoptosis in many neuronal and non-neuronal systems. Under survival promoting conditions GSK3β is kept inactivated by phosphorylation at an inhibitory site, a modification that can be induced by Akt as well as by other kinases.
Background: A western blot detects proteins with antibodies after separation by electrophoresis.

The subject of a further assay is phospho-Akt (Ser473). Kind of assay: Western blot of signaling proteins in LK-treated cerebellar granule neurons: phospho-Akt (Ser473). The settings on record: LK medium with compound. As for the experimental part: as §1, §2, §3
Assay [1] has as its system cerebellar granule neurons. The assay can be described thus: Effect of inhibition of signal transduction pathways on neuroprotection by 1,4-benzoxazines in LK-treated cerebellar granule neurons. To be noted: LK medium, 24 h; for effect of pharmacological inhibition of the MEK-ERK and PI-3K-Akt pathways on neuroprotective action: PD98059 40 μM, U0126 10 μM, Wortmannin 100 nm, Akt inhibitor-X 5 μM, DAPI. As for the experimental part:
Cultures of cerebellar granule neurons were switched to LK medium, LK medium containing of HSB-13, or LK medium containing HSB-13 and either PD98059 (40 μM), U0126 (10 μM), Wortmannin ([…]), Akt inhibitor-X (5 μM), KN-62 (10 μM), H89 (10 μM) and TSA (1 μM). Viability was quantified 24 h later by DAPI staining. The results were normalized to viability in control cultures which were switched to HK medium;
The Raf-MEK-ERK and P1-3 kinase-Akt signaling are two well-established and powerful anti-apoptotic pathways in mammalian cells that mediate the protective effects of a number of neurotrophic polypeptides, pharmacological agents, and neuroprotective compounds (D'Mello and Chin, 2005; Hetman et al., 2006). To determine whether either of these pathways was involved in the neuroprotective effect of 1,4-benzoxazines the inventors studied whether the pharmacological inhibition of these pathways affected their neuroprotective efficacy. […] Similarly, none of the compounds tested (the PI-3 kinase inhibitor, wortmannin, the Akt inhibitor X, or a commercially available inhibitor of Akt) reduced the ability of HSB-13 to protect neurons against LK-induced apoptosis (FIG. 3). […] As observed for HSB-13, pharmacological inhibition of the MEK-ERK and PI-3K-Akt pathways had no effect on the neuroprotective actions of ASK-2a or HSB-22.
Treatment of cerebellar granule neurons with HK activates calcium-calmodulin kinase (CaMK) and inhibition of CaMK with pharmacological inhibitors such as KN-62 inhibits HK-mediated survival (See et al., 2001; Linseman et al., 2003; Morrison et al., 2006). […] The present inventors recognized that several investigators have shown that cyclic AMP analogs and pharmacological activators of protein kinase A promote survival of cerebellar granule neurons as well as other neuronal types in the absence of other survival-promoting stimuli (Rydel and Greene, 1988; D'Mello et al., 1993; Hanson et al., 1998). PKA-mediated neuronal survival is blocked by treatment with H89, a potent and selective PICA inhibitor (Li et al., 2000; Bhave and Hoffman, 2004). […] The inventors have previously reported that histone deacetylase inhibitors such as trichostatin A block the ability of HK to maintain the survival of cerebellar granule neurons (Salminen et al., 1998; Boutillier et al., 2002; Morrison et al., 2006).

In the case of `O=C1Nc2ccccc2OC1=Cc1cc(Br)c(O)c(Br)c1` [ASK-2a], in the assay on phospho-MEK, the “LK-induced decrease of MEK phosphorylation” value (“LK-induced decrease” for short) is reported as “not prevented”. The “dephosphorylation of GSK3β in LK” value in the assay with phospho-GSK3β is recorded as “inhibit dephosphorylation”. Moreover, the “phosphorylation of Akt at Ser473 in LK” value in the assay on phospho-Akt (Ser473) was “not affected”. In addition, the “effect of pharmacological inhibition of the MEK-ERK and PI-3K-Akt pathways on neuroprotective action” value in assay [1] was “no effect”.

On to `O=C1Nc2cc(Cl)ccc2O/C1=C\c1cc(Br)c(O)c(Br)c1` [HSB-22], for which the “LK-induced decrease” value in the assay with phospho-MEK is given as “not prevented”. In addition, the “dephosphorylation of GSK3β in LK” value with phospho-GSK3β was “inhibit dephosphorylation”. In the assay on phospho-Akt (Ser473), the “phosphorylation of Akt at Ser473 in LK” value is “not affected”. In assay [1], the “effect of pharmacological inhibition of the MEK-ERK and PI-3K-Akt pathways on neuroprotective action” value is recorded as “no effect”.

Regarding `Nc1ccc2c(c1)NC(=O)/C(=C/c1cc(Br)c(O)c(Br)c1)O2` [HSB-13, (Z)-6-amino-2-(3,′5′-dibromo-4′-hydrozybenzylidene)-2H-benzo[b][1,4]oxazin-3(4H)-one], the “LK-induced decrease” value with phospho-MEK was “not prevented”. For the same compound, the “dephosphorylation of GSK3β in LK” value in the assay with phospho-GSK3β was “not inhibited”. The “phosphorylation of Akt at Ser473 in LK” value in the assay on phospho-Akt (Ser473) is “inhibits Akt (Ser473) phosphorylation even more than that seen in LK”. In addition, the “neuroprotection in the presence of H89” value in assay [1] (H89 10 μM (PKA inhibitor)) is recorded as “no effect”. In addition, in assay [1] (KN-62 10 μM (CaMK inhibitor)), the “neuroprotection in the presence of KN-62” value is listed as “not, however, reduced”. Moreover, the “effect of pharmacological inhibition of the MEK-ERK and PI-3K-Akt pathways on neuroprotective action” value in assay [1] is recorded as “no effect”. In addition, the “neuroprotection in the presence of TSA” value in assay [1] (TSA 1 μM (histone deacetylase inhibitor)) is reported as “did not inhibit”.
